Measured values from publication PMC4030749 (Molecular cancer therapeutics, 2012).
Several values for one entry are separate records, joined by “and”; a condition that tells them apart may be missing. Equal values may be shown once.

Assays:
[1] = test system: Sm3e/C825 bsAb; experiment: Binding affinity of Sm3e/C825 bsAb; conditions: unlabeled (no metal) DOTA
[2] = test system: LS174T and C6 tumor-bearing mice; experiment: Pretargeted organ/tissue biodistribution in tumor-bearing mice; assay type: in vivo
[3] = target: Sm3e/C825 bsAb; conditions: read-out: binding affinity (KD) to bsAb; cited from earlier work
[4] = pretargeted protocol, 4 h p.i., n=3
[5] = pretargeted protocol, 24 h p.i., n=3
[6] = pretargeted protocol, 48 h p.i., n=3

O=C(O)CN1CCN(CC(=O)O)CCN(CC(=O)O)CCN(CC(=O)O)CC1 [DOTA, 1,4,7,10-Tetraazacyclododecane-1,4,7,10-tetraacetic acid]
binding to pretargeted anti-DOTA binding sites [1]: no observable binding

O=C([O-])CN1CCN(CC(=O)[O-])CCN(CC(=O)[O-])CCN(CC(=O)[O-])CC1.[177Lu+3].[H+] [^177Lu-DOTA]
antigen-positive tumor uptake, pretargeted versus ^177Lu-DOTA alone ([2]; 4 h post-injection): approximately 90 fold
Biodistribution, Adipose [2, 4]: 2.78 ± 1.08 %ID/g
Biodistribution, Blood [2, 4]: 0.42 ± 0.02 %ID/g
Biodistribution, Bone (femur) [2, 4]: 1.49 ± 0.38 %ID/g
Biodistribution, C6 Tumor (antigen-negative) [2, 4]: 9.82 ± 0.35 (0.26 ± 0.08 g) %ID/g
Biodistribution, Heart [2, 4]: 0.25 ± 0.16 %ID/g
Biodistribution, Kidneys (both) [2, 4]: 0.92 ± 0.05 %ID/g
Biodistribution, LS174T Tumor (antigen-positive) [2, 4]: 7.44 ± 0.41 (0.09 ± 0.03 g) %ID/g
Biodistribution, Lg Intestine [2, 4]: 0.13 ± 0.09 %ID/g
Biodistribution, Liver [2, 4]: 0.59 ± 0.21 %ID/g
Biodistribution, Lung [2, 4]: 1.25 ± 0.43 %ID/g
Biodistribution, Muscle [2, 4]: 1.56 ± 0.56 %ID/g
Biodistribution, Skin [2, 4]: 4.68 ± 1.06 %ID/g
Biodistribution, Sm Intestine [2, 4]: 0.28 ± 0.02 %ID/g
Biodistribution, Spleen [2, 4]: 0.39 ± 0.09 %ID/g
Biodistribution, Stomach (with contents) [2, 4]: 0.21 ± 0.12 %ID/g
Tumor/organ ratio, Adipose [2, 4]: 3.2 ± 1.5
Tumor/organ ratio, Bone (femur) [2, 4]: 5.3 ± 1.6
Tumor/organ ratio, C6 Tumor [2, 4]: 0.7 ± 0.1
Tumor/organ ratio, Heart [2, 4]: 49 ± 36
Tumor/organ ratio, LS174T Tumor [2, 4]: 1
Tumor/organ ratio, LS174T tumor-to-Blood [2, 4]: 18 ± 2
Tumor/organ ratio, Lg Intestine [2, 4]: 80 ± 36
Tumor/organ ratio, Liver [2, 4]: 13.9 ± 3.7
Tumor/organ ratio, Lung [2, 4]: 7.2 ± 3.7
Tumor/organ ratio, Muscle [2, 4]: 5.3 ± 1.6
Tumor/organ ratio, Skin [2, 4]: 1.7 ± 0.4
Tumor/organ ratio, Sm Intestine [2, 4]: 27 ± 4
Tumor/organ ratio, Spleen [2, 4]: 20 ± 5
Tumor/organ ratio, Stomach (with contents) [2, 4]: 48 ± 22
Biodistribution, Adipose [2, 5]: 0.67 ± 0.12 %ID/g
Biodistribution, Blood [2, 5]: 0.04 ± 0.01 %ID/g
Biodistribution, Bone (femur) [2, 5]: 0.43 ± 0.12 %ID/g
Biodistribution, C6 Tumor (antigen-negative) [2, 5]: 4.23 ± 0.54 (0.26 ± 0.07 g) %ID/g
Biodistribution, Heart [2, 5]: 0.05 ± 0.01 %ID/g
Biodistribution, Kidneys (both) [2, 5]: 0.88 ± 0.16 %ID/g
Biodistribution, LS174T Tumor (antigen-positive) [2, 5]: 14.3 ± 1.8 %ID/g and 14.34 ± 1.83 (0.21 ± 0.10 g) %ID/g
Biodistribution, Lg Intestine [2, 5]: 0.52 ± 0.56 %ID/g
Biodistribution, Liver [2, 5]: 0.51 ± 0.23 %ID/g
Biodistribution, Lung [2, 5]: 0.37 ± 0.07 %ID/g
Biodistribution, Muscle [2, 5]: 0.41 ± 0.24 %ID/g
Biodistribution, Skin [2, 5]: 1.05 ± 0.25 %ID/g
Biodistribution, Sm Intestine [2, 5]: 0.08 ± 0.04 %ID/g
Biodistribution, Spleen [2, 5]: 0.29 ± 0.09 %ID/g
Biodistribution, Stomach (with contents) [2, 5]: 0.09 ± 0.07 %ID/g
Tumor/organ ratio, Adipose [2, 5]: 23 ± 6
Tumor/organ ratio, Bone (femur) [2, 5]: 38 ± 16
Tumor/organ ratio, C6 Tumor [2, 5]: 3.4 ± 0.3
Tumor/organ ratio, Heart [2, 5]: 323 ± 108
Tumor/organ ratio, LS174T Tumor [2, 5]: 1
Tumor/organ ratio, LS174T tumor-to-Blood [2, 5]: 380 ± 90
Tumor/organ ratio, Lg Intestine [2, 5]: 83 ± 53
Tumor/organ ratio, Liver [2, 5]: 33 ± 11
Tumor/organ ratio, Lung [2, 5]: 39 ± 3
Tumor/organ ratio, Muscle [2, 5]: 57 ± 41
Tumor/organ ratio, Skin [2, 5]: 14 ± 2
Tumor/organ ratio, Sm Intestine [2, 5]: 217 ± 76
Tumor/organ ratio, Spleen [2, 5]: 52 ± 12
Tumor/organ ratio, Stomach (with contents) [2, 5]: 252 ± 119
Biodistribution, Adipose [2, 6]: 0.60 ± 0.29 %ID/g
Biodistribution, Bone (femur) [2, 6]: 0.24 ± 0.10 %ID/g
Biodistribution, C6 Tumor (antigen-negative) [2, 6]: 2.89 ± 2.28 (0.28 ± 0.13 g) %ID/g
Biodistribution, Heart [2, 6]: 0.07 ± 0.03 %ID/g
Biodistribution, Kidneys (both) [2, 6]: 0.62 ± 0.19 %ID/g
Biodistribution, LS174T Tumor (antigen-positive) [2, 6]: 13.44 ± 3.25 (0.49 ± 0.09 g) %ID/g
Biodistribution, Lg Intestine [2, 6]: 0.11 ± 0.04 %ID/g
Biodistribution, Liver [2, 6]: 0.56 ± 0.35 %ID/g
Biodistribution, Lung [2, 6]: 0.21 ± 0.04 %ID/g
Biodistribution, Muscle [2, 6]: 0.15 ± 0.07 %ID/g
Biodistribution, Skin [2, 6]: 0.71 ± 0.20 %ID/g
Biodistribution, Sm Intestine [2, 6]: 0.14 ± 0.11 %ID/g
Biodistribution, Spleen [2, 6]: 0.64 ± 0.60 %ID/g
Biodistribution, Stomach (with contents) [2, 6]: 0.22 ± 0.24 %ID/g
Tumor/organ ratio, Adipose [2, 6]: 28 ± 13
Tumor/organ ratio, Bone (femur) [2, 6]: 60 ± 19
Tumor/organ ratio, C6 Tumor [2, 6]: 10 ± 9
Tumor/organ ratio, Heart [2, 6]: 244 ± 85
Tumor/organ ratio, LS174T Tumor [2, 6]: 1
Tumor/organ ratio, Lg Intestine [2, 6]: 128 ± 16
Tumor/organ ratio, Liver [2, 6]: 32 ± 13
Tumor/organ ratio, Lung [2, 6]: 63 ± 6
Tumor/organ ratio, Muscle [2, 6]: 105 ± 40
Tumor/organ ratio, Skin [2, 6]: 20 ± 8
Tumor/organ ratio, Sm Intestine [2, 6]: 183 ± 129
Tumor/organ ratio, Spleen [2, 6]: 40 ± 21
Tumor/organ ratio, Stomach (with contents) [2, 6]: 276 ± 236
Kd [3]: 0.4 nM

O=C([O-])CN1CCN(CC(=O)[O-])CCN(CC(=O)[O-])CCN(CC(=O)[O-])CC1.[111In+3] [^111In-DOTA]
Biodistribution, LS174T Tumor (antigen-positive) [2, 5]: 0.5 ± 0.1 %ID/g
Tumor/organ ratio, LS174T tumor-to-Kidneys (both) [2, 5]: 1.2 ± 0.4
Kd [3]: 20 nM
